What all share (assay): kinase selectivity panel
Holding throughout (type): biochemical

For one assay, the target named is T1, FGFR3 (Homo sapiens, UniProt P22607).
T1 construct: purchased Eurofins Pharma Discovery Services (KinaseProfiler; Cerep BioPrint panel)
Particulars: read-out: percentage of control activity (POC), FGFR3. The procedure: (§1) Kinase selectivity was evaluated at Eurofins Pharma Discovery Services using a selection of 125 representative kinases tested at a concentration of 10 μM in duplicate (S3 Table). IC50 values for selected activities were further characterized at 9 duplicate concentrations. DNA-PK activity was determined at the SelectScreen® Biochemical kinase Profiling Service of Thermo Fisher Scientific.

The target of another assay is T2, Pim-1 (Homo sapiens, UniProt P11309).
T2 construct: purchased Eurofins Pharma Discovery Services (KinaseProfiler; Cerep BioPrint panel)
Conditions: read-out: percentage of control activity (POC), Pim-1. The procedure:
as §1

The next assay concerns the target T3, IGF-1R (Homo sapiens, UniProt P08069).
T3 construct: purchased Eurofins Pharma Discovery Services (KinaseProfiler; Cerep BioPrint panel)
Conditions: read-out: percentage of control activity (POC), IGF-1R. The procedure:
as §1

In a further assay the target is T4, IKKβ (Homo sapiens, UniProt O14920).
T4 construct: purchased Eurofins Pharma Discovery Services (KinaseProfiler; Cerep BioPrint panel)
T4 sequence (O14920 1-756): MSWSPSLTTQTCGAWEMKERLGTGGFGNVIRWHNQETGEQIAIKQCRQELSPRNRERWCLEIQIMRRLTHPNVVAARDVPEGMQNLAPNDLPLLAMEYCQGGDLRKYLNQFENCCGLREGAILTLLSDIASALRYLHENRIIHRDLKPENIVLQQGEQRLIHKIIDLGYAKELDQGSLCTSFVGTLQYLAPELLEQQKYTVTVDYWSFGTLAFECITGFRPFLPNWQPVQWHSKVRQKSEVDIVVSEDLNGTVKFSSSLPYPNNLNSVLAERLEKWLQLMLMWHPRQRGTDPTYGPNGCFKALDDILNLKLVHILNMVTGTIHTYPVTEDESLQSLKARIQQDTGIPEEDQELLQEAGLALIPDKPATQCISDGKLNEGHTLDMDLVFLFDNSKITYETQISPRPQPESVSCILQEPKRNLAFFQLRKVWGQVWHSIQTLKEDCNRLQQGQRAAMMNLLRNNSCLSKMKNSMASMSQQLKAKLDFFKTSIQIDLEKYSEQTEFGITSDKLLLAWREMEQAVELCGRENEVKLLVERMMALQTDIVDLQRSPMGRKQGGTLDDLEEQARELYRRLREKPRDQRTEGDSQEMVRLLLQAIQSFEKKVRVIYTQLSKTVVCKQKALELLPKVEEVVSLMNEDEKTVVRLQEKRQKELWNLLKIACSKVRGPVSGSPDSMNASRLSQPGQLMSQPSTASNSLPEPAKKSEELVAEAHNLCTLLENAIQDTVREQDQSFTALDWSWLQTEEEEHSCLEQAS
Conditions: read-out: percentage of control activity (POC), IKKβ. Here is the method:
as §1

In the next assay the target is T5, PKCε (Homo sapiens, UniProt Q02156).
T5 construct: purchased Eurofins Pharma Discovery Services (KinaseProfiler; Cerep BioPrint panel)
T5 sequence (Q02156 1-737): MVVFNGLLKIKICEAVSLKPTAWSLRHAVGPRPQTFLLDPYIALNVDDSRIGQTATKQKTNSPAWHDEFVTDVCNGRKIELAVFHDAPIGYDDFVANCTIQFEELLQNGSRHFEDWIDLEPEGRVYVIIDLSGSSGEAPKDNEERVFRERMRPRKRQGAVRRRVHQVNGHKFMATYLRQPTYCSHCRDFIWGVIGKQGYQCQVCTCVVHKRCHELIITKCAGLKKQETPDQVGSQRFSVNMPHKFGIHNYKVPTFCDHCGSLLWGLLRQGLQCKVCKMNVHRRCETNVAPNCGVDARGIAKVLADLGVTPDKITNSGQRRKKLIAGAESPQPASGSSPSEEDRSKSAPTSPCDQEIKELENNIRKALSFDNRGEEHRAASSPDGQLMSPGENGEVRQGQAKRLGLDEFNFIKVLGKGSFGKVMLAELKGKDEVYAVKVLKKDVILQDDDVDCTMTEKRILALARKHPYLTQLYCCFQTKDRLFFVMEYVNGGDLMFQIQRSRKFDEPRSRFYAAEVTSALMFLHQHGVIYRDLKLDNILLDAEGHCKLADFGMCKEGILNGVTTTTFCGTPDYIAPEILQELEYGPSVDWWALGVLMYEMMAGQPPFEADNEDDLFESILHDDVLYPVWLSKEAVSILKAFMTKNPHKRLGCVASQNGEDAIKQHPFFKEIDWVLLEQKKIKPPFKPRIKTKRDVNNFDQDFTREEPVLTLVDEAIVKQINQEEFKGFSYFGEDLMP
Conditions: read-out: percentage of control activity (POC), PKCε. The procedure: as §1

Another assay addresses T6, Flt1 (Homo sapiens, UniProt P17948).
T6 construct: purchased Eurofins Pharma Discovery Services (KinaseProfiler; Cerep BioPrint panel)
Particulars: read-out: percentage of control activity (POC), Flt1. The procedure:
as §1

Another assay has as its target T7, Fgr (Homo sapiens, UniProt P09769).
T7 construct: purchased Eurofins Pharma Discovery Services (KinaseProfiler; Cerep BioPrint panel)
Particulars: read-out: percentage of control activity (POC), Fgr. Here is the method: as §1

A further assay addresses T8, Rsk4 (Homo sapiens, UniProt Q9UK32).
T8 construct: purchased Eurofins Pharma Discovery Services (KinaseProfiler; Cerep BioPrint panel)
Conditions: read-out: percentage of control activity (POC), Rsk4. The procedure:
as §1

The target of another assay is T9, Flt4 (Homo sapiens, UniProt P35916).
T9 construct: Eurofins Pharma Discovery Services (contract assay service)
Particulars: for remaining activity at 10 µM: read-out: percentage of control activity (POC), Flt4. Here is the method:
as §1

The next assay concerns the target T10, TAK1 (Homo sapiens, UniProt O43318).
T10 construct: purchased Eurofins Pharma Discovery Services (KinaseProfiler; Cerep BioPrint panel)
T10 sequence (O43318 1-303 limits assumed): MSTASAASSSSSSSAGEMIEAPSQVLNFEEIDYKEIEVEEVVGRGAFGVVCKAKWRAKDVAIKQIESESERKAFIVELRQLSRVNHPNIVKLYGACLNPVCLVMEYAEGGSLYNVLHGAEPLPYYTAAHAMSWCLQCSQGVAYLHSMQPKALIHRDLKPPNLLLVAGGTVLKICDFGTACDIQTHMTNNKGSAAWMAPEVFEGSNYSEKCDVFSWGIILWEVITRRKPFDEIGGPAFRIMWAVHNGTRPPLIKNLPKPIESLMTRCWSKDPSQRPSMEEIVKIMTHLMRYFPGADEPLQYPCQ
Conditions: read-out: percentage of control activity (POC), TAK1. The procedure:
as §1

Another assay concerns the target T11, Rsk3 (Homo sapiens, UniProt Q15349).
T11 construct: purchased Eurofins Pharma Discovery Services (KinaseProfiler; Cerep BioPrint panel)
Conditions: read-out: percentage of control activity (POC), Rsk3. Here is the method:
as §1

T9 sequence (P35916 25-1363, species assumed): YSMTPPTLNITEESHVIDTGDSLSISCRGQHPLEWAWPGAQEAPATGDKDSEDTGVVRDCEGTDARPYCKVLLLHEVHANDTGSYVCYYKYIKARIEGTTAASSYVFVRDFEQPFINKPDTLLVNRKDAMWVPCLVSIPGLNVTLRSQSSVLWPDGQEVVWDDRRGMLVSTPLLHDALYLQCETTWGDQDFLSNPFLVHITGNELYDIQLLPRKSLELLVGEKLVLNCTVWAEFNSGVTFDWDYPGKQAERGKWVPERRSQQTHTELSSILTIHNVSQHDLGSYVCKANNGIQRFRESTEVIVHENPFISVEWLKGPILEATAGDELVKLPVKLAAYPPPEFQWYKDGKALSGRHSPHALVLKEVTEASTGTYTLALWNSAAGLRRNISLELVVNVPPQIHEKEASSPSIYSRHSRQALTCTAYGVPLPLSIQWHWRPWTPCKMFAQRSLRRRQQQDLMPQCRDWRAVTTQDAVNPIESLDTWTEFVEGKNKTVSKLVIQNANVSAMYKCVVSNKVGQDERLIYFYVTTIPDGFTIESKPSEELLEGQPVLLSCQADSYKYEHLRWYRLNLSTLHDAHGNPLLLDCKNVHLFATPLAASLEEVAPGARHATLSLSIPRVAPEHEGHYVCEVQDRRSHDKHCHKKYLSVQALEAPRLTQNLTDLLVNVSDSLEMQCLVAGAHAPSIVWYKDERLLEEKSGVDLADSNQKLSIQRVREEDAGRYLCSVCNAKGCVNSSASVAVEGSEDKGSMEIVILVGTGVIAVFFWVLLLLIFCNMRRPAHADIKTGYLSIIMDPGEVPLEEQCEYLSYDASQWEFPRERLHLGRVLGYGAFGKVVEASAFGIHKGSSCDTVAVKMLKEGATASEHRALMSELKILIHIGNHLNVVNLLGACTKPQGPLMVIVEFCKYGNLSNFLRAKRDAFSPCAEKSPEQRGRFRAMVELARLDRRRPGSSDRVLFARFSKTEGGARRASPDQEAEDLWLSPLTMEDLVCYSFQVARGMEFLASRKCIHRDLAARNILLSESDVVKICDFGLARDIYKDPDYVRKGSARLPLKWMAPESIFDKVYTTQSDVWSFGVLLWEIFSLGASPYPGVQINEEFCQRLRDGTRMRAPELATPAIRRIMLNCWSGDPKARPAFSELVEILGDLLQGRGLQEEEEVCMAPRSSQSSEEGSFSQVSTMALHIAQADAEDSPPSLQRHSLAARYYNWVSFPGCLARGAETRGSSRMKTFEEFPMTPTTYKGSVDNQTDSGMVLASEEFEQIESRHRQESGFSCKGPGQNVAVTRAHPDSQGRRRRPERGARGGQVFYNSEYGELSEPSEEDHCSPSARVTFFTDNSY
T11 sequence (Q15349 whole entry): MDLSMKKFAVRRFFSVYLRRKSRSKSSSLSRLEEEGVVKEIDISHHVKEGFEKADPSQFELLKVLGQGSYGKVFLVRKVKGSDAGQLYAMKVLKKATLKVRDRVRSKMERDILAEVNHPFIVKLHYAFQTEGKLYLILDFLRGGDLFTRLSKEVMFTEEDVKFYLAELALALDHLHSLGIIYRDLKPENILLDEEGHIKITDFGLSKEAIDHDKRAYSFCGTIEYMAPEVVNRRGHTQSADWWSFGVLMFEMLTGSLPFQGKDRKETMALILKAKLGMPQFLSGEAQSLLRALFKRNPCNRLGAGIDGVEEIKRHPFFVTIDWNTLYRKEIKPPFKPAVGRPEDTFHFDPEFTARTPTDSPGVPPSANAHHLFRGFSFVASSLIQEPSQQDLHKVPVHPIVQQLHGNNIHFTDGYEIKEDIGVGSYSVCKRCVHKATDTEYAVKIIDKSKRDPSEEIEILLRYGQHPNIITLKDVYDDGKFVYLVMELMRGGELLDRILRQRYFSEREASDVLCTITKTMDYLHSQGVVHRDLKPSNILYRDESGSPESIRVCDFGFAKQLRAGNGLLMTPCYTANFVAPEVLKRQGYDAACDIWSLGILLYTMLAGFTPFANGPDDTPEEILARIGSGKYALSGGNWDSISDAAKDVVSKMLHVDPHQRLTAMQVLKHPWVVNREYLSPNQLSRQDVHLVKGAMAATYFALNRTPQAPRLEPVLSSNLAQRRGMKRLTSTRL
T2 sequence (P11309 whole entry): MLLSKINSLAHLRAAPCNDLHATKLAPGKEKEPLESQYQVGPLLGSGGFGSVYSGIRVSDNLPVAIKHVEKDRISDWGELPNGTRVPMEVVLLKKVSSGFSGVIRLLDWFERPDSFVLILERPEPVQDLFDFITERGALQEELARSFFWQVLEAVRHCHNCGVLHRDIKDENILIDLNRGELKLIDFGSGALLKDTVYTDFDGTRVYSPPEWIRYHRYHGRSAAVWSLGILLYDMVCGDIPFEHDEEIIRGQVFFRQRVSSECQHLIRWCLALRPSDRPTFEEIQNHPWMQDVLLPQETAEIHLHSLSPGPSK
T3 sequence (P08069 31-1367): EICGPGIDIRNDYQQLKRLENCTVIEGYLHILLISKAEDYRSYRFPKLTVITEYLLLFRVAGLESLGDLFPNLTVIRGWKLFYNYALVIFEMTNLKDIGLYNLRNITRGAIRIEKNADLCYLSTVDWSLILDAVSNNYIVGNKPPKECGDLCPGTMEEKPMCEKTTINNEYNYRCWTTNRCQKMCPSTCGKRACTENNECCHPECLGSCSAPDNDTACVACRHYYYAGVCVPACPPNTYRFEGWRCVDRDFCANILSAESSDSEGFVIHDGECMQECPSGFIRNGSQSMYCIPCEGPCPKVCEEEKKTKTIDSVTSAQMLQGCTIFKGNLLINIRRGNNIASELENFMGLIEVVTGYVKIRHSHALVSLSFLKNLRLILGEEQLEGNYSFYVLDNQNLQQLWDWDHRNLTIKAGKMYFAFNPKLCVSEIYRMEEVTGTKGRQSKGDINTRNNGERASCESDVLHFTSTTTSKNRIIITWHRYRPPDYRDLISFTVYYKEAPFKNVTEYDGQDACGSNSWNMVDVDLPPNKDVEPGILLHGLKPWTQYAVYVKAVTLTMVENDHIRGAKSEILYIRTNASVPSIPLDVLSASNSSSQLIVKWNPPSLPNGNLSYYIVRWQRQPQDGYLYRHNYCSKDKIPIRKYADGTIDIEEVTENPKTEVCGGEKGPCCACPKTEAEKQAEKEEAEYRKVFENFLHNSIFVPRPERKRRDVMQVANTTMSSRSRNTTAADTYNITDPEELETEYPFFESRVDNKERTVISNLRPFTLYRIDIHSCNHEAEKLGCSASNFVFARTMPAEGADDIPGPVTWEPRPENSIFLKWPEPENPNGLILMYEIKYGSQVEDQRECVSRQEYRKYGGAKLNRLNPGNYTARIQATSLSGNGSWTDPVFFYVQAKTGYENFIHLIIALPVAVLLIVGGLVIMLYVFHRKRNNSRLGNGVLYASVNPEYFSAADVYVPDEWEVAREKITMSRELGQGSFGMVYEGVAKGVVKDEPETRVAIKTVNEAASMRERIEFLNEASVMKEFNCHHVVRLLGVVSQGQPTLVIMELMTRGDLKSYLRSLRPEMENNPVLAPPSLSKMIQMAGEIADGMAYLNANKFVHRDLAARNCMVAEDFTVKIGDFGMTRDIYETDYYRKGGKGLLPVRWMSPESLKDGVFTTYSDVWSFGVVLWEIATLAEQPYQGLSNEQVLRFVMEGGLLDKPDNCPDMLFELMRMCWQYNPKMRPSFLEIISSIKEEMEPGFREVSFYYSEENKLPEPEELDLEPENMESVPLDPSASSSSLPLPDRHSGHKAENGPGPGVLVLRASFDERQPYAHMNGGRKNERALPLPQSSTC
T6 sequence (P17948 27-1338): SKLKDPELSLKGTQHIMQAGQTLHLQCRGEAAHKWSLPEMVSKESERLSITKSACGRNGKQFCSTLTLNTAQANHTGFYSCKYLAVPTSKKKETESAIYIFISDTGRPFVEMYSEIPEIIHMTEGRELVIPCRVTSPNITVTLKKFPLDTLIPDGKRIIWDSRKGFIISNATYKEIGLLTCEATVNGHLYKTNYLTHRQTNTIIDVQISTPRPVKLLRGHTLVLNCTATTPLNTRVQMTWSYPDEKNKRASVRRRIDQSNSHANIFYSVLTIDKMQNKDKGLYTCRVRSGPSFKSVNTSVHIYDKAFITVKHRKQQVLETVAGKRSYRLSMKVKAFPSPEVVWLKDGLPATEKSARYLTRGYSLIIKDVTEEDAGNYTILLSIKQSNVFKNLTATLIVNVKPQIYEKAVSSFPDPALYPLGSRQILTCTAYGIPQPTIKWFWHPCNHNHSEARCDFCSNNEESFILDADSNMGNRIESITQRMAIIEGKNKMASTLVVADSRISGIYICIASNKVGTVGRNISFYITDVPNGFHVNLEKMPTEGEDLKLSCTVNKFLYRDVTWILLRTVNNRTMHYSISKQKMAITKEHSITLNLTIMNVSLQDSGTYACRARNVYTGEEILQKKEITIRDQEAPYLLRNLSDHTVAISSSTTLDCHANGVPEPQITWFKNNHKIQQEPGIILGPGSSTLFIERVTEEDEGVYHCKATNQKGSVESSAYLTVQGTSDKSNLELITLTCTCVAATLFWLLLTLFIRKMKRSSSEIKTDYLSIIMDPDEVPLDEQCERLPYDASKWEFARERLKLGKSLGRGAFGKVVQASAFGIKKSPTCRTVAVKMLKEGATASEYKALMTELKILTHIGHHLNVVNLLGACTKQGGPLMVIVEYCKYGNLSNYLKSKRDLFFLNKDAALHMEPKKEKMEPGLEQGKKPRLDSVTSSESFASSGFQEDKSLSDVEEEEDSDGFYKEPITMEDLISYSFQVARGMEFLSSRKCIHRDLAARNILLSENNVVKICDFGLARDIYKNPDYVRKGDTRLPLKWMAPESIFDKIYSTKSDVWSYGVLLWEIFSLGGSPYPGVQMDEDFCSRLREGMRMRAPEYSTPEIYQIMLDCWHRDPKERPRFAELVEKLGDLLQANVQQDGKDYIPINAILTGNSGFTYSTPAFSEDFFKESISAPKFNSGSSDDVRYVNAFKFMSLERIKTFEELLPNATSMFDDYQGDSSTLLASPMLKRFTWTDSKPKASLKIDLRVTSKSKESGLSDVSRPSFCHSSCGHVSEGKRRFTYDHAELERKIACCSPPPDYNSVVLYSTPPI

`CC(C)(C)N1CCC(c2cc(-c3ccc(F)cc3Cl)c3cc[n+]([O-])c(-c4c(Cl)cccc4Cl)c3n2)CC1` [compound 2]: the remaining activity at 10 µM was determined as 99% at FGFR3; 86% at Pim-1; 113% at IGF-1R; 102% at IKKβ; 94% at PKCε; 114% on Flt1. The remaining activity at 10 µM turned out to be 99% at Fgr; 102% on Rsk4; 108% at Flt4 (10 μM); 105% on TAK1; 99% on Rsk3.
In the case of `Cc1ccc(C(=O)NCC2CC2)cc1-c1ccc2c(c1)NC(=O)C21CCCC1` [compound 3], the remaining activity at 10 µM on FGFR3 was 92%; on Pim-1, 79%; at IGF-1R, 89%; at IKKβ, 107%; on PKCε it was 102%; at Flt1, 128%. Also, the remaining activity at 10 µM turned out to be 93% on Fgr; 103% on Rsk4; 78% on Flt4 (10 μM); 97% on TAK1; 102% at Rsk3.
With `Cn1cc(-c2cccc(-c3nc(C(=O)NC4C5CC6CC4CC(O)(C6)C5)c(N)nc3N)c2)cn1` (stereo not drawn) [compound 4], the remaining activity at 10 µM on FGFR3 amounted to 88%; at Pim-1, 68%; at IGF-1R it was 94%; at IKKβ, 95%; on PKCε, 87%; at Flt1, 84%. Further, the remaining activity at 10 µM on Fgr was 67%; on Rsk4 it was 110%; on Flt4 (10 μM) it was 20%; on TAK1, 97%; at Rsk3, 75%. Also, the inhibition (commonly the drop in the measured response relative to a control, in per cent) at 10 µM on Flt4 (10 μM, read-out: inhibition of Ftl4) is 80%. The IC50 (commonly the point on the concentration scale where inhibition reaches its midpoint) on Flt4 (biochemical dose response, duplicate, read-out: Inhibition of indicated activity (IC50, μM): Ftl4) worked out at 3.13 µM.
On to `CS(=O)(=O)N1CCN(c2ccc(Nc3ncc(C(N)=O)c(NC4CC4)n3)cc2)CC1` [compound 5], for which the remaining activity at 10 µM at FGFR3 is 8%; at Pim-1 it was 81%; on IGF-1R, 64%; at IKKβ it was 8%; at PKCε, 54%; at Flt1 it was -3%. Besides, the remaining activity at 10 µM was found to be 5% at Fgr; 2% on Rsk4; 0% on Flt4 (10 μM); 1% on TAK1; 0% on Rsk3.
Consider `COc1c(NC(=O)c2ccc(C)c(-c3nnc4c(NCC(C)(C)C)nccn34)c2)cc(C(C)(C)C)cc1NS(C)(=O)=O` [compound 7, reference compound], for which the remaining activity at 10 µM at FGFR3 turned out to be 97%; on Pim-1 it was 96%; on IGF-1R, 123%; at IKKβ, 127%; at PKCε, 100%; on Flt1, 80%. The remaining activity at 10 µM on Fgr worked out at 98%; at Rsk4, 131%; on Flt4 (10 μM), 88%; on TAK1, 103%; on Rsk3, 110%.

These data come from publication PMC5761851, “Application of a phenotypic drug discovery strategy to identify biological and chemical starting points for inhibition of TSLP production in lung epithelial cells” (PLoS ONE, 2018).
